Measurements published in ChEMBL document CHEMBL5058644, “Data for DCP probe JNJ-39758979” (2022).

Assays:
[1] = biological target: ALK tyrosine kinase receptor (Homo sapiens) (UniProt Q9UM73); assay: ALK(h) Millipore kinase panel; conditions: Compound concentration 10.0 uM
Rattus norvegicus = organism: Rattus norvegicus; assay: AMPK(r) Millipore kinase panel; conditions: Compound concentration 10.0 uM
[2] = biological target: Tyrosine-protein kinase BTK (Homo sapiens) (UniProt Q06187); assay: BTK(h) Millipore kinase panel; conditions: Compound concentration 10.0 uM
[3] = biological target: Serine/threonine-protein kinase Chk2 (Homo sapiens) (UniProt O96017); assay: CHK2(h) Millipore kinase panel; conditions: Compound concentration 10.0 uM
Homo sapiens = organism: Homo sapiens; assay: CK2(h) Millipore kinase panel; conditions: Compound concentration 10.0 uM
[4] = biological target: Dual specificity protein kinase CLK3 (Homo sapiens) (UniProt P49761); assay: CLK3(h) Millipore kinase panel; conditions: Compound concentration 10.0 uM
[5] = biological target: Tyrosine-protein kinase CSK (Homo sapiens) (UniProt P41240); assay: CSK(h) Millipore kinase panel; conditions: Compound concentration 10.0 uM
Chain of Tyrosine-protein kinase CSK (Homo sapiens) (P41240 2-450 limits assumed): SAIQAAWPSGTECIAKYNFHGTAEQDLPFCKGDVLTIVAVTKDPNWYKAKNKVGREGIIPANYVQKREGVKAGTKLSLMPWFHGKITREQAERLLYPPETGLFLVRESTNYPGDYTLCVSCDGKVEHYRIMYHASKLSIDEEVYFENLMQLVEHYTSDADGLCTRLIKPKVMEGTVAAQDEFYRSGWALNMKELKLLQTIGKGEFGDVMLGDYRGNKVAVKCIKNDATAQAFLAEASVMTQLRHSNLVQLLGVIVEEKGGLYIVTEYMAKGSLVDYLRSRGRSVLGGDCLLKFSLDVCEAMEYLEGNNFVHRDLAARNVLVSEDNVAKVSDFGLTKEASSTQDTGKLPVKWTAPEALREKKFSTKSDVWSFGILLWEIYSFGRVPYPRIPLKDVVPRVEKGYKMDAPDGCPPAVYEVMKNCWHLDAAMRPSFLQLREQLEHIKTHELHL

[6] = biological target: Death-associated protein kinase 1 (Homo sapiens) (UniProt P53355); assay: DAPK1(h) Millipore kinase panel; conditions: Compound concentration 10.0 uM
[7] = biological target: Serine/threonine-protein kinase DCLK2 (Homo sapiens) (UniProt Q8N568); assay: DCAMKL2(h) Millipore kinase panel; conditions: Compound concentration 10.0 uM
[8] = biological target: Ephrin type-A receptor 1 (Homo sapiens) (UniProt P21709); assay: EphA1(h) Millipore kinase panel; conditions: Compound concentration 10.0 uM
[9] = biological target: Interleukin-1 receptor-associated kinase 1 (Homo sapiens) (UniProt P51617); assay: IRAK1(h) Millipore kinase panel; conditions: Compound concentration 10.0 uM
[10] = biological target: Interleukin-1 receptor-associated kinase 4 (Homo sapiens) (UniProt Q9NWZ3); assay: IRAK4(h) Millipore kinase panel; conditions: Compound concentration 10.0 uM
[11] = biological target: Tyrosine-protein kinase JAK2 (Homo sapiens) (UniProt O60674); assay: JAK2(h) Millipore kinase panel; conditions: Compound concentration 10.0 uM
[12] = biological target: LIM domain kinase 1 (Homo sapiens) (UniProt P53667); assay: LIMK1(h) Millipore kinase panel; conditions: Compound concentration 10.0 uM
[13] = biological target: Serine/threonine-protein kinase STK11 (Homo sapiens) (UniProt Q15831); assay: LKB1(h) Millipore kinase panel; conditions: Compound concentration 10.0 uM
Chain of Serine/threonine-protein kinase STK11 (Homo sapiens) (Q15831 whole entry): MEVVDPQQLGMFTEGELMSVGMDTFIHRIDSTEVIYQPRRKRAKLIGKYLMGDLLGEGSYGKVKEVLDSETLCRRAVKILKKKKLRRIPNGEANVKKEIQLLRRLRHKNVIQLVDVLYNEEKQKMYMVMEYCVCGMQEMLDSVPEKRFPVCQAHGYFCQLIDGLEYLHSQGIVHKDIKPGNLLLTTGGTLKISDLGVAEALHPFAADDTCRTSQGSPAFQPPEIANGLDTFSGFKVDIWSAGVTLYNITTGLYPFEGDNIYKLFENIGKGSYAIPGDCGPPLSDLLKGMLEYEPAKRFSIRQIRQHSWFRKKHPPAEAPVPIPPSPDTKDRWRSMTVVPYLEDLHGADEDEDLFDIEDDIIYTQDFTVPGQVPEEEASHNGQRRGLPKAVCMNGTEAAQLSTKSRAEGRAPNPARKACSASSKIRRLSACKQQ

[14] = biological target: Muscle, skeletal receptor tyrosine-protein kinase (Homo sapiens) (UniProt O15146); assay: MuSK(h) Millipore kinase panel; conditions: Compound concentration 10.0 uM
Chain of Muscle, skeletal receptor tyrosine-protein kinase (Homo sapiens) (O15146 whole entry): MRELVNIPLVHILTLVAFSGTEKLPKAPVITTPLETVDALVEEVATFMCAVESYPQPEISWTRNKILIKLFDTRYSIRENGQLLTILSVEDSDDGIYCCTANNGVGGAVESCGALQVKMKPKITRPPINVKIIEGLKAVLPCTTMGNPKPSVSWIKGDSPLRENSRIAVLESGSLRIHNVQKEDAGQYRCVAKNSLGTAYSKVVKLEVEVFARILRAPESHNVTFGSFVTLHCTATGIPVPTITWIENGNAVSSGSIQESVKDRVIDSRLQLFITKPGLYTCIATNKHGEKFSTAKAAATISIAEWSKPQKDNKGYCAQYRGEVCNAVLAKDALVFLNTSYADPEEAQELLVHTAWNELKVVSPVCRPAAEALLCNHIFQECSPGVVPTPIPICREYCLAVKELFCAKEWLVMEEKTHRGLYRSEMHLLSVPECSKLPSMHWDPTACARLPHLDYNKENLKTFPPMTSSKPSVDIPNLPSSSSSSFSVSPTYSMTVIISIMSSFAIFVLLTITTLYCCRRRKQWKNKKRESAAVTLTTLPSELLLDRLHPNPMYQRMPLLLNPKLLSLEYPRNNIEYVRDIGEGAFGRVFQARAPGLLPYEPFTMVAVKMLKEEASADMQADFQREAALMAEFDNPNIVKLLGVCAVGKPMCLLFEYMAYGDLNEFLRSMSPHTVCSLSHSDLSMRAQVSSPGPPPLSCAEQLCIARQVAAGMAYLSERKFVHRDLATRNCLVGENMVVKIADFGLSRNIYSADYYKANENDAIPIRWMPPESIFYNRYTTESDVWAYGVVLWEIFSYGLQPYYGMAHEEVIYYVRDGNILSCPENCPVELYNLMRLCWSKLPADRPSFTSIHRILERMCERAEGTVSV

[15] = biological target: Serine/threonine-protein kinase Nek2 (Homo sapiens) (UniProt P51955); assay: NEK2(h) Millipore kinase panel; conditions: Compound concentration 10.0 uM
Chain of Serine/threonine-protein kinase Nek2 (Homo sapiens) (P51955 whole entry): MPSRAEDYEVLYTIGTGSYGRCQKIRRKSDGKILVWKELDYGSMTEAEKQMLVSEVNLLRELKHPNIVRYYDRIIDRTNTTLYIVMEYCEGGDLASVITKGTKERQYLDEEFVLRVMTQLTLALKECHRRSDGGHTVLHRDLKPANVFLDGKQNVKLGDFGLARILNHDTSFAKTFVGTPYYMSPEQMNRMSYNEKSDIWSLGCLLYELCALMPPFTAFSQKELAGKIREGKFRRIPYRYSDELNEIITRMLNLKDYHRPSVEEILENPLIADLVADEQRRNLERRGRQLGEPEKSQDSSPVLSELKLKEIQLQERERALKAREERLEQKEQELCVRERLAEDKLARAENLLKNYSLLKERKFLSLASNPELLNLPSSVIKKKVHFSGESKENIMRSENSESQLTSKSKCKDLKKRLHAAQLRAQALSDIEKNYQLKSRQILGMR

[16] = biological target: Ribosomal protein S6 kinase beta-1 (Homo sapiens) (UniProt P23443); assay: p70S6K(h) Millipore kinase panel; conditions: Compound concentration 10.0 uM
[17] = biological target: cAMP-dependent protein kinase catalytic subunit alpha (Homo sapiens) (UniProt P17612); assay: PKA(h) Millipore kinase panel; conditions: Compound concentration 10.0 uM
[18] = biological target: RAC-alpha serine/threonine-protein kinase (Homo sapiens) (UniProt P31749); assay: PKBα(h) Millipore kinase panel; conditions: Compound concentration 10.0 uM
[19] = biological target: RAC-gamma serine/threonine-protein kinase (Homo sapiens) (UniProt Q9Y243); assay: PKBγ(h) Millipore kinase panel; conditions: Compound concentration 10.0 uM
[20] = biological target: Serine/threonine-protein kinase D2 (Homo sapiens) (UniProt Q9BZL6); assay: PKD2(h) Millipore kinase panel; conditions: Compound concentration 10.0 uM
[21] = biological target: Serine/threonine-protein kinase 33 (Homo sapiens) (UniProt Q9BYT3); assay: STK33(h) Millipore kinase panel; conditions: Compound concentration 10.0 uM
Chain of Serine/threonine-protein kinase 33 (Homo sapiens) (Q9BYT3 whole entry, looked up): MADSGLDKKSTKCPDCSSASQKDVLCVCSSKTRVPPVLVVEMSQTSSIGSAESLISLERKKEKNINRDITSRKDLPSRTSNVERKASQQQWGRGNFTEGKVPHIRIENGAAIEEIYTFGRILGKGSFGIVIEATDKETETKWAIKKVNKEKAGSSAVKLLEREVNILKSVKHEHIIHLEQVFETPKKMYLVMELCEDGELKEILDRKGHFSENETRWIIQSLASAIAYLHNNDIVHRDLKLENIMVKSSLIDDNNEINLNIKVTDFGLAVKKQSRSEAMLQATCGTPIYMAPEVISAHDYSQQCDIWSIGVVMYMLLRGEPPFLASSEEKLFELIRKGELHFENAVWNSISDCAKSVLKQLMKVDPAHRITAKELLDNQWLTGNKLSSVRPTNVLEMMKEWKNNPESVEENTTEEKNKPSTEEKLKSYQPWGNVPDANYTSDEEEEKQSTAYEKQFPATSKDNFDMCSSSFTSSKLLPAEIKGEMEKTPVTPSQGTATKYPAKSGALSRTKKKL

[22] = biological target: High affinity nerve growth factor receptor (Homo sapiens) (UniProt P04629); assay: TrkA(h) Millipore kinase panel; conditions: Compound concentration 10.0 uM
[23] = biological target: Serine/threonine-protein kinase WNK2 (Homo sapiens) (UniProt Q9Y3S1); assay: WNK2(h) Millipore kinase panel; conditions: Compound concentration 10.0 uM
[24] = biological target: Adenosine receptor A2a (Homo sapiens) (UniProt P29274); assay: A2A (h) CEREP panel; conditions: Compound concentration 1.0 uM
[25] = biological target: Adenosine receptor A3 (Homo sapiens) (UniProt P0DMS8); assay: A3 (h) CEREP panel; conditions: Compound concentration 1.0 uM
Chain of Adenosine receptor A3 (Homo sapiens) (P0DMS8 whole entry): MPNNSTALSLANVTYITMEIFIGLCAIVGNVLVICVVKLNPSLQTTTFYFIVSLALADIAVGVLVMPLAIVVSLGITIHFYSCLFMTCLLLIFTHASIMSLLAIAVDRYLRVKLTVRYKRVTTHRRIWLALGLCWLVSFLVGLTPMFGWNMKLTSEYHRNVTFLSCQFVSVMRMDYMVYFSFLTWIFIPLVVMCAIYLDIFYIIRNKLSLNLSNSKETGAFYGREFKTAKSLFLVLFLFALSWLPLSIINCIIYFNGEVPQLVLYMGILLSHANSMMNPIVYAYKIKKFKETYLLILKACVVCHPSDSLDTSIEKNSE

[26] = biological target: Adrenergic receptor alpha-1 (Homo sapiens) (UniProt P35348+P25100+P35368); assay: alpha 1 (non-selective) CEREP panel; conditions: Compound concentration 1.0 uM
[27] = biological target: Adrenergic receptor alpha-2 (Homo sapiens) (UniProt P08913+P18825+P18089); assay: alpha 2 (non-selective) CEREP panel; conditions: Compound concentration 1.0 uM
[28] = biological target: Sodium-dependent noradrenaline transporter (Homo sapiens) (UniProt P23975); assay: NE transporter (h) CEREP panel; conditions: Compound concentration 1.0 uM
[29] = biological target: Cholecystokinin receptor type A (Homo sapiens) (UniProt P32238); assay: CCKA (h) (CCK1) CEREP panel; conditions: Compound concentration 1.0 uM
Chain of Cholecystokinin receptor type A (Homo sapiens) (P32238 whole entry): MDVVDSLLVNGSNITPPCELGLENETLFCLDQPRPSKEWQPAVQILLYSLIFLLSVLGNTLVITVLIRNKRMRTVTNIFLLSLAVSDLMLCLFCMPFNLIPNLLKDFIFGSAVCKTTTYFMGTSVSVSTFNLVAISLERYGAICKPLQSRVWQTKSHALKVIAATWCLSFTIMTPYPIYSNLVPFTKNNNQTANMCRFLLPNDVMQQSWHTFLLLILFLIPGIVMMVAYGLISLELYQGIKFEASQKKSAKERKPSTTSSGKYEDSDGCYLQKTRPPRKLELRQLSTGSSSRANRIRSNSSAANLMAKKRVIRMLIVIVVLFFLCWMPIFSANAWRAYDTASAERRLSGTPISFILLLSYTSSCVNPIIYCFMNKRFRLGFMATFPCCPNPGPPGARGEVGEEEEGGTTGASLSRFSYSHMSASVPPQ

[30] = biological target: D(2) dopamine receptor (Homo sapiens) (UniProt P14416); assay: D2 (h) CEREP panel; conditions: Compound concentration 1.0 uM
Chain of D(2) dopamine receptor (Homo sapiens) (P14416 whole entry): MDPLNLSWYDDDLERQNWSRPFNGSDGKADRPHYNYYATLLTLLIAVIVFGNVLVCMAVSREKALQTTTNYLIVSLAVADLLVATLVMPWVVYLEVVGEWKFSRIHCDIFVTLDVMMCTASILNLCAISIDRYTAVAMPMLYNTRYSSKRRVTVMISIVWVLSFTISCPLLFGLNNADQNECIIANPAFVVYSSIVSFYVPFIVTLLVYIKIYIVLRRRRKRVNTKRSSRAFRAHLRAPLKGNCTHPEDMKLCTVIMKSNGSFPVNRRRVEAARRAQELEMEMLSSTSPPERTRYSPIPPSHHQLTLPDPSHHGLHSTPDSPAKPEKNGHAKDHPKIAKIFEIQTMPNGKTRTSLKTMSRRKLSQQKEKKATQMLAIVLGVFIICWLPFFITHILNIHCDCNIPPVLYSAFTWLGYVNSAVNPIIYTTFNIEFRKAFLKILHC

[31] = biological target: Sodium-dependent dopamine transporter (Homo sapiens) (UniProt Q01959); assay: DA transporter (h) CEREP panel; conditions: Compound concentration 1.0 uM
Chain of Sodium-dependent dopamine transporter (Homo sapiens) (Q01959 whole entry): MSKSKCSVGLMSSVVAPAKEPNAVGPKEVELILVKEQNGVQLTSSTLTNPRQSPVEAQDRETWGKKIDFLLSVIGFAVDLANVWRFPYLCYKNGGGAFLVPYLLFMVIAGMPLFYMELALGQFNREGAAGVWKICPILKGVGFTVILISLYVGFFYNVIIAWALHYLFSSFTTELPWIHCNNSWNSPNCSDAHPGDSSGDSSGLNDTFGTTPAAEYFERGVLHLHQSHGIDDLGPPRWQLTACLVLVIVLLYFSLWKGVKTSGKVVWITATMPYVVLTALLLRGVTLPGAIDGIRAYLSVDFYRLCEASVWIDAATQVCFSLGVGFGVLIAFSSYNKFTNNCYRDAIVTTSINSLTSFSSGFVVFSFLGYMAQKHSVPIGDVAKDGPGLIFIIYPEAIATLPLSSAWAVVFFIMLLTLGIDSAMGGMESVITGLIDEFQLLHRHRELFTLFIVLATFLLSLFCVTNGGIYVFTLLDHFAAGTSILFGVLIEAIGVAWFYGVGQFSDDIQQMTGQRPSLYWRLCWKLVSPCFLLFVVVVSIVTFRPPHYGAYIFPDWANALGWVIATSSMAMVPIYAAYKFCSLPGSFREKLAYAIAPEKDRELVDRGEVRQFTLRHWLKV

[32] = biological target: Endothelin-1 receptor (Homo sapiens) (UniProt P25101); assay: ETA (h) CEREP panel; conditions: Compound concentration 1.0 uM
Chain of Endothelin-1 receptor (Homo sapiens) (P25101 whole entry): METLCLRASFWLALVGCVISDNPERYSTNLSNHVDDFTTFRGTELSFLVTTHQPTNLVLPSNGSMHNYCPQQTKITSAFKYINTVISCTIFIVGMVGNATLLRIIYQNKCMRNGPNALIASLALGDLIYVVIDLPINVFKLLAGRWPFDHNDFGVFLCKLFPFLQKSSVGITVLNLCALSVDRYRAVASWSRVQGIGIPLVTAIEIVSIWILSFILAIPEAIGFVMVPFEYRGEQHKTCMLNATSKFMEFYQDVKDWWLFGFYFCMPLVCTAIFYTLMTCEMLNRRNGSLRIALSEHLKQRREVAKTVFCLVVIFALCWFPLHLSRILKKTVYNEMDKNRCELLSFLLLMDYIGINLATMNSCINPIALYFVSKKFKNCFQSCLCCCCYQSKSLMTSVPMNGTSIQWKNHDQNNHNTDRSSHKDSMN

[33] = biological target: Galanin receptor type 2 (Homo sapiens) (UniProt O43603); assay: GAL2 (h) CEREP panel; conditions: Compound concentration 1.0 uM
[34] = biological target: Neuromedin-K receptor (Homo sapiens) (UniProt P29371); assay: NK3 (h) CEREP panel; conditions: Compound concentration 1.0 uM
[35] = biological target: Neurotensin receptor type 1 (Homo sapiens) (UniProt P30989); assay: NT1 (h) (NTS1) CEREP panel; conditions: Compound concentration 1.0 uM
[36] = biological target: Kappa-type opioid receptor (Homo sapiens) (UniProt P41145); assay: kappa (h) CEREP panel; conditions: Compound concentration 1.0 uM
[37] = biological target: Nociceptin receptor (Homo sapiens) (UniProt P41146); assay: ORL1 (h) CEREP panel; conditions: Compound concentration 1.0 uM
[38] = biological target: 5-hydroxytryptamine receptor 1A (Homo sapiens) (UniProt P08908); assay: 5-HT1A (h) CEREP panel; conditions: Compound concentration 1.0 uM
[39] = biological target: 5-hydroxytryptamine receptor 1B (Homo sapiens) (UniProt P28222); assay: 5-HT1B CEREP panel; conditions: Compound concentration 1.0 uM
[40] = biological target: 5-hydroxytryptamine receptor 5A (Homo sapiens) (UniProt P47898); assay: 5-HT5A (h) (5-ht5a) CEREP panel; conditions: Compound concentration 1.0 uM
[41] = biological target: 5-hydroxytryptamine receptor 6 (Homo sapiens) (UniProt P50406); assay: 5-HT6 (h) (5-ht6) CEREP panel; conditions: Compound concentration 1.0 uM
[42] = SK+Ca channel CEREP panel; conditions: Compound concentration 1.0 uM

Measured: inhibition

CC(C)c1cc(N2CC[C@@H](N)C2)nc(N)n1
inactive: [1] 12% | Rattus norvegicus 1% | [2] -9% | [3] 4% | Homo sapiens 4% | [4] 9% | [5] -9% | [6] -3% | [7] 1% | [8] -6% | [9] -6% | [10] -5% | [11] -7% | [12] -10% | [13] 0% | [14] -9% | [15] -10% | [16] 8% | [17] -2% | [18] -7% | [19] -3% | [20] 8% | [21] -4% | [22] 13% | [23] -5% | [24] < 10% | [25] < 10% | [26] < 10% | [27] 18% | [28] 10% | [29] < 10% | [30] < 10% | [31] 18% | [32] 15% | [33] < 10% | [34] < 10% | [35] < 10% | [36] < 10% | [37] < 10% | [38] < 10% | [39] < 10% | [40] < 10% | [41] < 10% | [42] < 10%
